Consider 2 molecules from US5817800A, “Inhibitors of β-glucuronidase and their use in the treatment of carcinamatosis and inflammation” (Hoechst Aktiengesellschaft, priority 1996, dated 1998).

Structures can show the parent of a compound that is named as a salt.

For the assay, the target named is T1, human β-glucuronidase (Homo sapiens, UniProt P08236).
T1 sequence (P08236 23-651): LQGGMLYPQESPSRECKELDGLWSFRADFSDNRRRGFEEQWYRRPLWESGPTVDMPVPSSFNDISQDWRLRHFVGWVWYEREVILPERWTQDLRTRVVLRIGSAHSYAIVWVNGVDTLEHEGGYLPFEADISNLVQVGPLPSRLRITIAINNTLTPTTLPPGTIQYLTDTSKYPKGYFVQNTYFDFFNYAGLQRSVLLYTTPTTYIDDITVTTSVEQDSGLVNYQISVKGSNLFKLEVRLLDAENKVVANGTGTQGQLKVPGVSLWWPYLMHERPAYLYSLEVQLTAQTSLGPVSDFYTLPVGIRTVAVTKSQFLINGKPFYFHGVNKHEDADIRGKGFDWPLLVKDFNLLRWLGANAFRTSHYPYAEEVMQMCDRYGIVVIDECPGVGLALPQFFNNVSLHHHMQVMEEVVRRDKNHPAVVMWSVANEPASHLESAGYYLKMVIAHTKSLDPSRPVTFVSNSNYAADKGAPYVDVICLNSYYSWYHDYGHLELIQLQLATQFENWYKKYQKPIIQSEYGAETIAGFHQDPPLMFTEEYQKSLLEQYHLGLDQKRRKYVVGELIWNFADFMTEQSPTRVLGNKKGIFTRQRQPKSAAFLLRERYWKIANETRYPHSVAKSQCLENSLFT
Nature of the assay: Inhibition of human β-glucuronidase (4-methylumbelliferyl-β-D-glucuronide substrate, fluorescence). Type of assay: biochemical. The conditions noted are these: substrate 4-methylumbelliferyl-β-D-glucuronide; 200 mM sodium acetate, 0.1 mg/ml BSA, pH 5; 10 min, 37° C. The procedure: The inhibition of human β-glucuronidase was determined using 4-methylumbelliferyl-β-D-glucuronide as a substrate. The test mixture contained 75 μl of 2.5 mM 4-methylumbelliferyl-β-D-glucuronide, 25 μl of enzyme (0.6 μg/ml) and 10 μl of the compound of the formula I in a concentration range from 0.0001 to 100 mM, all in 200 mM sodium acetate buffer and 0.1 mg/ml bovine serum albumin (BSA), pH 5. After a 10-minute incubation at 37° C., the mixture was stopped with 1.5 ml of 0.2 M glycine/0.2% SDS, pH 11.7. The methylumbelliferone released by the enzyme was measured in a fluorescence photometer at 360 nm excitation and 450 nm emission wavelength.
The IC50 -values were calculated from the inhibitor dilution series using the software program GraFit 2.0 (Erithacus Software Ltd.).

The term IC50 denotes the point on the concentration scale where inhibition reaches its midpoint. `O=C(Nc1ccccc1)O/N=C1\O[C@H](P(=O)(O)O)[C@@H](O)[C@H](O)[C@H]1O` [Example 2, Sodium (5R,Z)-O-(5-C-phosphonato-D-xylopyranosylidene) amino N-phenylcarbamate]: the IC50 came out at 11 mM.
With `O=C(Nc1ccccc1)O/N=C1\O[C@H](C(=O)O)[C@@H](O)[C@H](O)[C@H]1O` [Example 1, (Z)-O-(D-Glucopyranuronosylidene)amino N-phenylcarbamate (sodium salt)], half-maximal inhibition (IC50) was put at 0.0006 mM.
